In patent US20090170865A1, “Treatment of Prostate Cancer with Angiogenesis-Targeting Quinazoline-Based Anti-Cancer Compounds” (University of Kentucky Research Foundation, priority 2007, published 2009):
Where two headings read alike, the source gives them in different places.

What was measured:
PC-3 cells [1] = details: for apoptosis induction: 10 μmol/L, 24 h
Protocol: (§1) a) Hoechst Staining. Cells were plated in 6-well culture dishes at 5×10^4 cells per/well and at subconfluency were treated with increasing concentrations of DZ-1-23, -38, -40, -42, and -50 (0-25 μM). After 24 and 48 hrs of treatment, cells were fixed with 4% (w/v) paraformaldehyde (Sigma) and stained with 10 μg/mL Hoechst 33342 (B2261; Sigma) in the presence of 0.1% Triton X-100 (Sigma) as previously described. Cells were visualized using a Zeiss Axiovert S100 fluorescent microscope (Thornwood, N.Y.) with a UV filter (365 nm) and cells with condensed chromatin were designated apoptotic (100× magnification). The apoptotic index was determined by counting three random fields in duplicate wells per group. Each experiment was performed twice. b) MTT assay: Subconfluent cultures of cells were exposed to increasing concentrations of DZ-1-23, -38, -40, -42, and -50 (0-25 μM). After treatment the medium was replaced with 250 μl of MTT (Sigma) (1 mg/ml) and incubated at 37° C. to form blue crystals. After 2 hrs the MTT was removed and replaced with DMSO (250 μl) and incubated overnight at 37° C. The DMSO-crystal solution's absorbance was read at 540 nm in a microplate reader (Bio-Tek Instruments, Winooski, VM). Numerical data represent the average of three independent experiments performed in triplicate. Cell Migration Assay. (Wounding assay) Confluent monolayers of PC-3, DU-145, HUVEC, or HMVEC-L cells were wounded with a toothpick. After wounding, medium was changed and DZ-3 or DZ-50 (5 μM). After incubation for 12 or 24 hrs, wounding areas were examined under light microscopy (Axiovert 10, Zeiss). Cells that had migrated to the wounded areas were counted under a microscope for quantification of cell migration. Migration was calculated as the average number of cells observed in five random high power (400×) wounded fields/per well in duplicate wells. Tube Formation Assay: In vitro Angiogenesis Evaluation: In vitro formation of tubular structures was studied on extracellular matrix using an angiogenesis kit as described by the manufacturer (Chemicon International, Inc., Temecula, Calif.). HUVEC or HMVEC-L (10×10^4 cells/well) of 96-well-plates were seeded onto ECMatrigel-coated wells in the presence or absence of DZ-3 or DZ-50 and VEGF. Cells were treated with cytokines as single agents or each in combination (e.g. DZ-50 and VEGF).

HUVEC = experiment: Tube formation assay (in vitro angiogenesis); type: cell-based, human; details: for vascular endothelial cell tube formation: 10 μmol/L, Matrigel, 24 hrs
[2] = test system: endothelial and epithelial cell lines; experiment: Cell viability / cell death evaluation (MTT assay); type: cell-based, human
[3] = test system: PC-3 human prostate cancer xenografts; details: for CD31+ (vascularity) / Ki67 (proliferation index), % / TUNEL (apoptotic index): PC-3 xenograft
Protocol: (§2) Tumorigenicity Studies. Human prostate cells (PC-3 and DU-145) suspended in PBS, were inoculated subcutaneously (s.c.) (2.5×10^6 cells/site) in the flank of male nude mice, 4-6 weeks of age. Tumors were measured every 48 hrs with a digital caliber, and tumor volumes were calculated using the formula length×(width)^2/2. When tumors reached ≈50 mm^3 mice were stratified into treatment groups of 6 mice/treatment. DZ-50 was administered at doses of 50, 100, and 200 mg/kg in 0.5% methylcellulose (w/v)+0.1% Tween-80 (v/v) in water, by oral gavage using a 22-gauge, 1.5-inch gavage needle. Animals were sacrificed after 2 wks of treatment unless otherwise indicated. In a separate experiment human prostate cells (PC-3) were inoculated as described above and dosing began (200 mg/kg) concurrently for 2 wks. Upon termination of the experiment, tumors were surgically excised and tissue specimens were fixed in a 10% (v/v) formalin solution (Sigma) and subsequently embedded in Paraplast X-tra paraffin (VWR). Blocks were sectioned (6 μm) on a Finesse Microtome (ThermoShandon, UK).
(§3) Spontaneous Metastasis Assay: Human prostate cells (PC-3) were injected (2×10^6 cells/80 μl of PBS) in the tail vein of male nude mice, 4-6 wks of age; mice were maintained in a pathogen-free environment. At 10 days post-inoculation, 200 mg/kg of DZ-50 was given daily (via oral gavage as described above). After 2 wks of treatment, DZ-50 treated and vehicle control mice were sacrificed and lungs, spleen, kidneys, and prostate organs were excised and subjected to examination for metastatic tumor lesions. Apoptosis Evaluation Apoptotic cells were detected using the ApopTago Peroxidase In Situ Apoptosis Kit (Chemicon, Temecula, Calif.). Briefly, paraffin-embedded sections were treated with Proteinase K (Dako, Carpinteria, Calif.) and were subsequently incubated with terminal deoxynucleotidyl transferase enzyme. Terminal deoxynucleotidyl transferase-mediated deoxyuridine triphosphate nick end labeling (TUNEL)-positive cells were counted in five different fields (400×) and the apoptotic index was determined based on the number of apoptotic cells over the total number of cells. Vascularity Evaluation: CD31 staining was performed for endothelial cells using enzymatic digestion with Proteinase K (Dako). The primary antibody used was the mouse anti-human CD31 specific for endothelial cells from Dako (overnight incubation at 4° C.). CD31-positive endothelial cells were counted in five different fields (400×). Cell Proliferation Cell proliferation index was evaluated on the basis of Ki67 nuclear antigen immunoreactivity. Following antigen retrieval slides were incubated with an antibody directed against the Ki67 nuclear antigen (AMAC, Westbrook, Mass.). Ki67+ cells were counted from five different fields (400×).

[4] = test system: DU-145 human prostate cancer xenografts; details: for CD31+ (vascularity) / Ki67 (proliferation index), % / TUNEL (apoptotic index): DU-145 xenograft
Protocol: as §2, §3

PC-3 cells [5] = details: 6, 9, and 12 h exposure, 5 and 10 μmol/L
Protocol: (§4) Prostate cancer cells PC-3 and DU-145 cells were treated for 3, 6, 9, 12, or 15 hrs with DZ-50 (5 μM) and harvested. 5×10^4 cells were added to each well of a 6-well culture dish coated with either collagen or fibronectin and incubated for 30 min at 37° C. Following incubation cells were fixed and the number of cells/well recorded. Numerical data represent the average of three independent experiments in triplicate.

DU-145 cells [6] = test system: DU-145 cells
Protocol: as §4

[7] = test system: PC-3 cells injected in the tail vein; details: 200 mg/kg p.o. from 10 d postinoculation, 21 days of treatment, vs untreated control mice
Protocol: as §3, with “Vascularity Evaluation: CD31 staining was performed for endothelial cells using enzymatic digestion with Proteinase K (Dako). The primary antibody used was the mouse anti-human CD31 specific for endothelial cells from Dako (overnight incubation at 4° C.).” left out, “Following antigen retrieval slides were incubated with an antibody directed against the Ki67 nuclear antigen (AMAC, Westbrook, Mass.).” left out

DU-145 cells [8] = details: non-cytotoxic doses 5 and 10 μM
Protocol: as §1

[9] = test system: HUVEC, HMVEC-L vascular endothelial cells; details: non-cytotoxic doses 5 and 10 μM
Protocol: as §1

integrin β1 = details: 10 μmol/L
Protocol: (§5) FACS—Flow Cytometric Analysis: PC-3 cells were treated with DZ-50 (10 μM) and harvested with 0.5 mM EDTA solution. Prostate cancer epithelial cells were then incubated with hanks balanced salt solution (HBSS) supplemented with 2% BSA and 0.01% sodium azide for 30 min at 4° C. Cells were subsequently fixed in 4% (w/v) formaldehyde, washed, and incubated with the designated integrin antibody followed by FITC-conjugated goat anti-mouse secondary. Analysis was performed on a Partec FlowMax (Partec, Munster, Germany).

[10] = test system: integrins α2, α3, αV, and β3; details: PC-3 cells, data not shown
Protocol: as §5

[11] = test system: PC-3 cells on HMVEC-L monolayer; details: 6 hrs of exposure, non-cytotoxic doses
Protocol: Sterile (12 mm diameter) glass coverslips were coated with Matrigel (Becton Dickson, Franklin Lakes, N.J.) at a dilution of 1:8 and air dried at room temperature (1 hr). Coverslips received approximately 6.25×10^4 HMVEC-L to form a complete monolayer. The cells were allowed to spread on the Matrigel for 24 hrs prior to the experiment. PC-3 cells were resuspended in EGM-2MV (Cambrex) and added to the HMVEC-L monolayer at a concentration of 8×10^3 cells/coverslip. Co-cultures were incubated at 37° C. at 5% CO2 for 3, 6, 9, 12, and 24 hrs. Prior to the addition of prostate epithelial cells, cells were incubated with the lipophilic tracer 1,1′-dioctadecyl-3,3,3′,3′-tetramethylindocarbocyanine perchlorate (DiI) (Invitrogen, Carlsbad, Calif.) for 20 min at 10 μg/ml to stain cell membranes. To label F-actin, PC-3 cells, or co-cultures of PC-3 cells HMVEC-L were fixed for 10 min at room temperature in 2% paraformaldehyde in PBS, and were permeabilized for 5 min with a buffer containing 15 mM Tris, 120 mM NaCl, 2 mM EDTA, 2 mM EGTA, and 0.5% Triton X-100 (pH 7.4). […] Coverslips were mounted with Vectashield (Vector Laboratories, Burlington, Canada) on glass slides and analyzed with confocal microscopy.

[12] = data not shown
[13] = test system: CAM blood vessel development; details: 48 hrs, with VEGF or bFGF
Protocol: Fertilized chicken eggs were incubated at 37° C. At E8 a window was created to allow visualization of the egg shell membrane. 6 mm blank paper discs (BD) were placed on the egg shell membrane along with VEGF (100 ng) or bFGF (100 ng) and DZ-50. The windows were sealed with porous adhesive and allowed to incubate 48 hrs. At E10 the adhesive was removed along with the egg shell membrane to expose the CAM and 4% paraformaldehyde was added. Following excision the number of vessels per CAM was quantified by counting under a dissecting microscope.

COc1cc2nc(N3CCN(S(=O)(=O)c4ccc(-c5ccccc5)cc4)CC3)nc(N)c2cc1OC [DZ-3]
apoptosis induction (PC-3 cells [1]): trigger apoptotic cell death

COc1cc2nc(N3CCN(S(=O)(=O)c4c(C(C)C)cc(C(C)C)cc4C(C)C)CC3)nc(N)c2cc1OC [DZ-10, 2-[4-(2,4,6-triisopropylbenzenesulfonyl)-piperazin-1-yl]-6,7-dimethoxyquinazolin-4-yl-amine]
vascular endothelial cell tube formation (HUVEC): does not change the ability of HUVEC cells to form multibranched tubular networks | effect on cell viability ([2]; negative control compound of the tube formation assay): no effect on cell viability

CC(C)Oc1cc2nc(N3CCN(S(=O)(=O)c4ccc(-c5ccccc5)cc4)CC3)nc(N)c2cc1OC(C)C [DZ-50]
prostate tumor development (growth initiation) ([3]; PC-3 inoculation with simultaneous treatment, 200 mg/kg p.o., 2 wks): dramatically suppressed | CD31+ (vascularity) ([3]; 100 mg/kg): 13.5 ± 1.9 | Ki67 (proliferation index), % ([3]; 100 mg/kg): 42.6% | TUNEL (apoptotic index) ([3]; 100 mg/kg): 2.0 ± 0.8 | CD31+ (vascularity) ([3]; 200 mg/kg): 6.5 ± 0.6 | Ki67 (proliferation index), % ([3]; 200 mg/kg): 45.0% | TUNEL (apoptotic index) ([3]; 200 mg/kg): 1.4 ± 0.4 | tumor volume ([3]; PC-3 xenografts, 200 mg/kg p.o., 14 d after palpable tumor formation): significant reduction in tumor volume | CD31+ (vascularity) ([4]; 100 mg/kg): 15.1 ± 0.7 | Ki67 (proliferation index), % ([4]; 100 mg/kg): 53.9% | TUNEL (apoptotic index) ([4]; 100 mg/kg): 3.5 ± 1.0 | CD31+ (vascularity) ([4]; 200 mg/kg): 10.1 ± 0.4 | Ki67 (proliferation index), % ([4]; 200 mg/kg): 49.7% | TUNEL (apoptotic index) ([4]; 200 mg/kg): 3.4 ± 1.2 | tumor volume ([4]; DU-145 xenografts, 200 mg/kg p.o., 14 d after palpable tumor formation): significant reduction in tumor volume | attachment of PC-3 cells to fibronectin or collagen (PC-3 cells [5]): reduced the ability of PC-3 cells to attach to either fibronectin or collagen, but this effect was not statistically significant | attachment of DU-145 cells to fibronectin or collagen (DU-145 cells [6]): neither fibronectin nor collagen, was significantly inhibited | tube formation in the presence of VEGF (HUVEC; 10 μmol/L with VEGF): VEGF cannot reverse the antiangiogenic effect | vascular endothelial cell tube formation (HUVEC): significantly inhibited | number of metastatic foci to the lungs [7]: significant reduction | apoptosis induction (PC-3 cells [1]): not effective at inducing apoptosis | prostate cancer epithelial cell migration (PC-3) (PC-3 cells [1]; non-cytotoxic doses 5 and 10 μM): significant inhibition | prostate cancer epithelial cell migration (DU-145) (DU-145 cells [8]): significant inhibition | endothelial cell migration [9]: significant inhibition | integrin β1 expression intensity (integrin β1; DU-145 cells, 12 h): significantly smaller shift | integrin β1 surface expression (integrin β1; PC-3 cells, 12-24 hrs): undetectable | surface expression of integrins α2, α3, αV, and β3 [10]: did not effect the surface expression | attachment of tumor epithelial cells to an endothelial monolayer [11]: significantly inhibited | cell viability/cell death ([2]; PC-3 and HMVEC-L cells, 10M, first 24 hrs of treatment): no effect on cell viability/cell death | cell viability ([2]; endothelial and epithelial cell lines, 24 and 48 hrs, 5-25 μmol/L): reduced cell viability | gross and histological examination of lung, liver, spleen, and prostate ([12]; compared to control animals): no apparent changes | animal's behavioral pattern and weight [12]: no change | angiogenesis/vascularity (number of blood vessels per CAM) [13]: significant suppression of angiogenesis/vascularity
